Values quoted from earlier work, collected in patent US20060292216A1, “Enteric delivery of (-)-hydroxycitric acid” (priority 2003, published 2006).

What was measured:
[1] = test system: middle-aged rats fed a 30% fat diet
test subjects = conditions: chronic administration; resting and exercising conditions
[2] = test system: human hepatoma cell line Hep G2
[3] = test system: experimental animals fed a high-sugar diet; conditions: single large oral dose or two divided oral doses totaling one fourth of it
humans = conditions: conditions that elevate de novo lipogenesis

Row | SMILES | protein and fat as percentage of body weight [1] | respiratory exchange ratio (test subjects) | cholesterol biosynthesis, of the control value, by incorporation from 3H2O [2] | incorporation of [1,5-14C]citrate into fatty acids and cholesterol ([2]; 0.5 mM or higher, 2.5 h and 18 h incubations) | reduction in food consumption [3] | fat synthesis and energy expenditure (humans)
1 | O=C([O-])CC(O)(C(=O)[O-])C(O)C(=O)[O-].[K+].[K+].[K+] (stereo not drawn) [potassium HCA] | increased protein as a percentage of body weight while reducing fat as a percentage of body weight | – | – | – | – | –
2 | O=C(O)CC(O)(C(=O)O)C(O)C(=O)O (single isomer, unassigned; (-)) [HCA, (−)-hydroxycitric acid] | – | significantly lower | 27 % of the control value | strongly inhibited | ≥ 10% | reduced fat synthesis and increased energy expenditure
